Read-outs that look alike come from different tables or passages of the source.
Legend:
[1] = system: COLO 205 colorectal tumor cells; assay: Tumor cell viability inhibition assay (CellTiter-Glo 2.0, 72 hours); assay type: cell-based; details: COLO 205 cell viability
Method in brief: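 COLO 205 cells (1500/well, RPMI-1640 + 10% FBS) exposed for 72 h to an 11-point, 4-fold dilution series; cellular ATP read by CellTiter-Glo 2.0 luminescence. Data normalized to DMSO and maximum-inhibition controls; IC50 from 4-parameter curve fit.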

human eIF4E protein = target: T1, human eIF4E protein (Homo sapiens, UniProt P06730); assay: Biochemical competitive binding assay (TR-FRET competition, EDA-m7GDP-ATTO-647N probe); details: read-out: hEIF4E TR-FRET IC50
T1 construct: purchased Novus NBP-45314
T1 sequence (P06730 whole entry): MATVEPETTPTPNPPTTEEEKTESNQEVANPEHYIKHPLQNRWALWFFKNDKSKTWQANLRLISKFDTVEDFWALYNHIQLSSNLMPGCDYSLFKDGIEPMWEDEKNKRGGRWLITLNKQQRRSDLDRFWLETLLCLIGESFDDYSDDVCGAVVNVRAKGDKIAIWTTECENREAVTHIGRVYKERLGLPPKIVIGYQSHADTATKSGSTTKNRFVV
Method in brief: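 His-tagged human eIF4E (4 nM) was preincubated with Eu-anti-His antibody (2.5 nM) and added to compound (11-point, 4-fold dilutions) for 15 min. Then 5 nM EDA-m7GDP-ATTO-647N was added for 15 min, in HEPES pH 7.5, 100 mM KCl. The 665/620 TR-FRET ratio was normalized to controls, and IC50 was taken from 4-parameter fits.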

[2] = system: cyclin D1 protein levels in COLO 205 cells; assay: Cyclin D1 cellular inhibition assay (HTRF, 6 hours); assay type: cell-based; details: 6 hours of compound treatment, Cyclin D1 protein levels by HTRF, read-out: COLO 205 6 h Cyclin D1 TR-FRET IC50
Procedure: The effect of compound treatment on cyclin D1 protein levels in COLO 205 cells was assessed, as follows. Test compound plates were prepared with a Tecan D300e Digital Dispenser as 11-point concentration-response curves with a final DMSO concentration of 1%. COLO 205 (ATCC, CCL-222) colorectal tumor cells were seeded to assay-ready plates in RPMI-1640 medium supplemented with 10% FBS at 20,000 cells in a volume of 6 microliters per well. After 6 hours of compound treatment, cells were lysed and Cyclin D1 protein levels were assessed by an HTRF assay (PerkinElmer #64CYCD1ITPEG), according to the manufacturer's protocol. Time-resolved fluorescence was measured using a Clariostar Plus microplate reader (BMG Labtech) or equivalent. After normalization to the average of DMSO control and maximum inhibition control wells, concentration-response data were plotted and standard 4-parameter curve fitting (GraphPad Prism v9.4.1) was utilized to determine IC50 values.

Compound | IC50 ([1]; Homo sapiens, COLO 205, 72 h) [µM] | IC50 (human eIF4E protein) [µM] | IC50 ([2]; Homo sapiens, COLO 205, 6 h) [µM] | IC50 [1] [µM] | IC50 [2] [µM]
Cc1cc(-c2cc(Cl)ccc2OCCn2c(C)nc3c(c2=O)CC(N2CCC4(CC2)CC4(F)F)CC3)c2scc(C(=O)O)c2n1 (stereo not drawn) [Compound 174] | < 5 | < 0.1 | < 5 | – | –
Cc1cc(-c2cc(Cl)ccc2OCCn2c(C)nc3c(c2=O)CC(N(C)Cc2ccsc2)CC3)c2scc(C(=O)O)c2n1 (stereo not drawn) [Compound 191] | < 5 | < 0.1 | < 5 | – | –
Cc1cc(-c2cc(Cl)ccc2OCCn2c(C)nc3c(c2=O)CC(N(C)C)CO3)c2scc(C(=O)O)c2n1 (stereo not drawn) [Compound 230] | 5 to 20 | < 0.1 | 5 to 20 | – | –
Cc1cc(-c2cc(Cl)ccc2OCCn2c(C)nc3c(c2=O)CC(N2CC4C(C2)C4(F)F)CC3)c2scc(C(=O)O)c2n1 (stereo not drawn) [Compound 172] | < 5 | < 0.1 | < 5 | – | –
Cc1cc(-c2cc(Cl)ccc2OCCn2c(C)nc3c(c2=O)CC(N(C)Cc2ccnc(N)n2)CC3)c2scc(C(=O)O)c2n1 (stereo not drawn) [Compound 158, 7-(2-(2-(6-(((2-aminopyrimidin-4-yl)methyl)(methyl)amino)-2-methyl-4-oxo-5,6,7,8-tetrahydroquinazolin-3(4H)-yl)ethoxy)-5-chlorophenyl)-5-methylthieno[3,2-b]pyridine-3-carboxylic acid] | > 20 | < 0.1 | > 20 | – | –
Cc1cc(-c2cc(Cl)ccc2OCCn2c(C)nc3c(c2=O)CC(N(C)C[C@H]2C[C@@H](C(F)(F)F)C2)CC3)c2scc(C(=O)O)c2n1 (stereo partly drawn) [Compound 204] | < 5 | < 0.1 | < 5 | – | –
Cc1cc(-c2cc(Cl)ccc2OCCn2c(C)nc3c(c2=O)CC(N(C)[C@H]2C[C@](C)(O)C2)CC3)c2scc(C(=O)O)c2n1 (stereo partly drawn) [Compound 193] | > 20 | < 0.1 | > 20 | – | –
Cc1cc(-c2cc(Cl)ccc2OCCn2c(C)nc3c(c2=O)C[C@H](N2C[C@H]4CC(F)(F)[C@H]4C2)CC3)c2scc(C(=O)O)c2n1 (single isomer, unassigned) [Compound 147] | < 5 | < 0.1 | < 5 | – | –
Cc1cc(-c2cc(Cl)ccc2OCCn2c(C)nc3c(c2=O)C[C@H](N(C)[C@H]2CC[C@@](C)(O)C2)CC3)c2scc(C(=O)O)c2n1 (single isomer, unassigned) [Compound 183] | > 20 | < 0.1 | > 20 | – | –
COc1cc(CNC2CCc3nc(C)n(CCOc4ccc(Cl)cc4-c4cc(C)nc5c(C(=O)O)csc45)c(=O)c3C2)ccn1 (stereo not drawn) [Compound 154] | < 5 | < 0.1 | < 5 | – | –
Cc1cc(-c2cc(Cl)ccc2OCCn2c(C)nc3c(c2=O)CC(N2CCC(OC4CC4)CC2)CC3)c2scc(C(=O)O)c2n1 (stereo not drawn) [Compound 179] | < 5 | < 0.1 | < 5 | – | –
Cc1cc(-c2cc(Cl)ccc2OCCn2c(C)nc3c(c2=O)C[C@@H](N(C)[C@H]2CC[C@](C)(O)CC2)CC3)c2scc(C(=O)NS(C)(=O)=O)c2n1 (single isomer, unassigned) [Compound 206] | > 20 | < 0.1 | > 20 | – | –
Cc1cc(-c2cc(Cl)ccc2OCCn2c(C)nc3c(c2=O)CC(N(C)CC24CC(C2)C4)CC3)c2scc(C(=O)O)c2n1 (stereo not drawn) [Compound 205] | < 5 | < 0.1 | < 5 | – | –
Cc1cc(-c2cc(Cl)ccc2OCCn2c(C)nc3c(c2=O)CC(N2CCc4cc(C(F)(F)F)ccc4C2)CC3)c2scc(C(=O)O)c2n1 (stereo not drawn) [Compound 160] | < 5 | < 0.1 | < 5 | – | –
Cc1cc(-c2cc(Cl)ccc2OCCn2c(C)nc3c(c2=O)CC(N(C)CC2CC(F)(F)C2)CC3)c2scc(C(N)=O)c2n1 (stereo not drawn) [Compound 138] | 5 to 20 | 0.1 to 0.5 | > 20 | – | –
Cc1cc(-c2cc(Cl)ccc2OCCn2c(C)nc3c(c2=O)C[C@H](N(C)[C@H]2CC[C@](C)(O)CC2)CC3)c2scc(C(=O)O)c2n1 (single isomer, unassigned) [Compound 227] | > 20 | < 0.1 | > 20 | – | –
Cc1cc(-c2cc(Cl)ccc2OCCn2c(C)nc3c(c2=O)CC(N2CC4(CC=C(F)CC4)C2)CC3)c2scc(C(=O)O)c2n1 (stereo not drawn) [Compound 162] | < 5 | < 0.1 | < 5 | – | –
COC1CCN(C2CCc3nc(C)n(CCOc4ccc(Cl)cc4-c4cc(C)nc5c(C(=O)NC6CC(F)(F)C6)csc45)c(=O)c3C2)CC1 (stereo not drawn) [Compound 144] | 5 to 20 | 0.5 to 5 | > 20 | – | –
Cc1cc(-c2cc(Cl)ccc2OCCn2c(C)nc3c(c2=O)C[C@@H](N(C)C[C@H]2C[C@@H](C(F)(F)F)C2)CC3)c2scc(C(=O)O)c2n1 (stereo in doubt) [Compound 189] | < 5 | < 0.1 | < 5 | – | –
Cc1cc(-c2cc(Cl)ccc2OCCn2c(C)nc3c(c2=O)CC(N2CC4CCC(C4)C2)CC3)c2scc(C(=O)O)c2n1 (stereo not drawn) [Compound 176] | < 5 | < 0.1 | < 5 | – | –
Cc1cc(-c2cc(Cl)ccc2OCCn2c(C)nc3c(c2=O)CC(N2CCc4ncccc4C2)CC3)c2scc(C(=O)O)c2n1 (stereo not drawn) [Compound 180] | < 5 | < 0.1 | < 5 | – | –
Cc1cc(-c2cc(Cl)ccc2OCCn2c(C)nc3c(c2=O)CC(N2CCc4ncsc4C2)CC3)c2scc(C(=O)O)c2n1 (stereo not drawn) [Compound 164] | < 5 | < 0.1 | < 5 | – | –
Cc1cc(-c2cc(Cl)ccc2OCCn2c(C)nc3c(c2=O)CC(N(C)C2(C4CCC4)CC2)CC3)c2scc(C(=O)NS(C)(=O)=O)c2n1 (single isomer, unassigned) [Compound 232] | – | < 0.1 | – | < 5 | < 5
Cc1cc(-c2cc(Cl)ccc2OCCn2c(C)nc3c(c2=O)C[C@H](N(C)[C@H]2CC[C@](C)(O)CC2)CC3)c2scc(C(=O)NS(C)(=O)=O)c2n1 (single isomer, unassigned) [Compound 207] | > 20 | < 0.1 | > 20 | – | –
Cc1cc(-c2cc(Cl)ccc2OCCn2c(C)nc3c(c2=O)CC(N2CCC(OC(F)(F)F)CC2)CC3)c2scc(C(=O)O)c2n1 (stereo not drawn) [Compound 178] | < 5 | < 0.1 | < 5 | – | –
Cc1cc(-c2cc(Cl)ccc2OCCn2c(C)nc3c(c2=O)C[C@H](N2CCC[C@@]4(C2)CC4(F)F)CC3)c2scc(C(=O)O)c2n1 (single isomer, unassigned) [Compound 139] | < 5 | < 0.1 | < 5 | – | –
Cc1cc(-c2cc(Cl)ccc2OCCn2c(C)nc3c(c2=O)CC(N2CC4(C2)CC(O)(C(F)(F)F)C4)CC3)c2scc(C(=O)O)c2n1 (stereo not drawn) [Compound 195] | > 20 | < 0.1 | > 20 | – | –
COC1CCN(C2CCc3nc(C)n(CCOc4ccc(Cl)cc4-c4cc(C)nc5c(C(=O)NS(C)(=O)=O)csc45)c(=O)c3C2)CC1 (single isomer, unassigned) [Compound 240] | – | < 0.1 | – | < 5 | 5 to 20
Cc1cc(-c2cc(Cl)ccc2OCCn2c(C)nc3c(c2=O)CC(N(C)Cc2ccc(=O)[nH]c2)CC3)c2scc(C(=O)O)c2n1 (single isomer, unassigned) [Compound 235] | > 20 | < 0.1 | > 20 | – | –
Cc1cc(-c2cc(Cl)ccc2OCCn2c(C)nc3c(c2=O)CC(N(C)Cc2cccc(OC(F)(F)F)c2)CC3)c2scc(C(=O)O)c2n1 (stereo not drawn) [Compound 222] | < 5 | < 0.1 | < 5 | – | –

Source: patent publication US20240246918A1, “COMPOUNDS AND COMPOSITIONS AS EIF4E INHIBITORS AND THE USES THEREOF” (Ribometrix, Inc., priority 2022, published 2024)
